Read-outs that look alike come from different tables or passages of the source. Where only a bound is given, the exact number is not on record here.

Consider 10 compounds from patent US5935959A, “Piperazine derivatives and use as cysteine inhibitors” (Senju Pharmaceutical Co., Ltd., priority 1995, dated 1999).

Assay type in all cases: biochemical
The test system of one experiment is trypsin. Nature of the experiment: Assay of Trypsin-Inhibitory Activity (casein degradation). As to conditions: read-out: Trypsin 50% Inhibitory concentration (IC50); casein substrate, pH 8.0, 60 min, 30° C. As for the experimental part: (§1) The activity of papain which is a cysteine protease and of trypsin (Sigma) which is a serine protease was assayed in accordance with the method described in the literature [Anal. Biochem., 208, 387-392, 1993]. Thus, to a solution containing 0.5 mg/ml casein, 50 mM Tris-HCl (pH 8.0), 20 mM dithiothreitol, and 0.2 mM EDTA was added 2.5 μl of dimethyl sulfoxide containing a varying concentration of the test drug as well as 0.03 unit of papain or trypsin to initiate the reaction. The final liquid volume was adjusted to 250 μl. After 60 minutes of reaction at 30° C., 100 μl of the reaction mixture was transferred to another vessel and following addition of 50 μl of purified water and 100 μl of 50% Coumassie brilliant blue solution, the mixture was allowed to stand at room temperature for 15 minutes. The absorbance of the mixture was then measured at 595 nm. Using the value found similarly by adding 2.5 μl of dimethyl sulfoxide not containing the test drug as control and the value found without addition of the enzyme as blank, IC50 was determined in the same manner as above. E64 and leupeptin were used as reference drugs.

The target in a further experiment is T1, μ-calpain (Homo sapiens, UniProt P07384).
T1 construct: purchased Nakarai Tesque
T1 sequence (P07384 1-714): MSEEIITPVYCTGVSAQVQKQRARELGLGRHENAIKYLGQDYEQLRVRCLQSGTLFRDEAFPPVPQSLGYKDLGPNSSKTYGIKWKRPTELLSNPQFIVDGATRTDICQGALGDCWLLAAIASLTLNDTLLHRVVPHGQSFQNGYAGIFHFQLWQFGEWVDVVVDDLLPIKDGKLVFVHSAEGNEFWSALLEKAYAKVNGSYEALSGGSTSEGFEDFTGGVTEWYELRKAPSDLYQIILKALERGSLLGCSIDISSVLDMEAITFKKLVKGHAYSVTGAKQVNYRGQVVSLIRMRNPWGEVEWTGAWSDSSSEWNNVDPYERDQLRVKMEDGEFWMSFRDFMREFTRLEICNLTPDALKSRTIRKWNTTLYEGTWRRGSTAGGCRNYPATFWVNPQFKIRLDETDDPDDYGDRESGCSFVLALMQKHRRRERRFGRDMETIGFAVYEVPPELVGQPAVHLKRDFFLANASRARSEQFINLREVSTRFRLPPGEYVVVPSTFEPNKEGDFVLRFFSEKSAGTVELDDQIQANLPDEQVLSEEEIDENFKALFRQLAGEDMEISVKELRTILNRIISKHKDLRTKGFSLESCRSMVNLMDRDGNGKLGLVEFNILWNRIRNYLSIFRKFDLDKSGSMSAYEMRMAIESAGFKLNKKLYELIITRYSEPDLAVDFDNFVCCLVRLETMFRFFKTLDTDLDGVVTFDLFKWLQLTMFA
T1 sequence (P04632 1-268 partner): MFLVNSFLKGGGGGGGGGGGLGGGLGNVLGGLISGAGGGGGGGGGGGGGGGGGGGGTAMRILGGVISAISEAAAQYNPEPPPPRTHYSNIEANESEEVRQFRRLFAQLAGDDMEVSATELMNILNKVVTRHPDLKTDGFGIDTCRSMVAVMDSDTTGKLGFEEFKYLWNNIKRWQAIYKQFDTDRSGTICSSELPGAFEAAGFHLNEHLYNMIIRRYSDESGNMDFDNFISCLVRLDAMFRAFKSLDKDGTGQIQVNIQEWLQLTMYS
Nature of the experiment: Assay of μ-Calpain-Inhibitory Activity (casein degradation). As to conditions: casein substrate, pH 7.4, 60 min, 30° C. As for the experimental part:
The activity of μ-calpain (Nakarai Tesque) was assayed in accordance with the procedure described in the literature [Anal. Biochem., 208, 387-392 (1993)]. Thus, to a solution containing 0.5 mg/ml casein, 50 mM Tris-HCl (pH 7.4), 20 mM dithiothreitol, and 4 mM calcium chloride was added 2.5 μl of a dimethyl sulfoxide solution containing a varying concentration of the test drug as well as 0.03 unit of μ-calpain to initiate the reaction. The final liquid volume was 250 μl. After 60 minutes of reaction at 30° C., 100 μl of the reaction mixture was transferred to another vessel, to which 50 μl of purified water and 100 μl of 50% Coumassie brilliant blue solution were added. The mixture was allowed to stand at room temperature for 15 minutes and the absorbance was measured at 595 nm. As a control, 2.5 μl of dimethyl sulfoxide not containing the test drug was added and the mixture was treated in the same manner as above. The absorbance value thus found was used as the control value. Similarly, the value found by adding 0.2 mM EDTA in lieu of 4 mM aqueous calcium chloride solution was used as the blank value. […] E64 which is a known cysteine protease inhibition compound was used as a reference drug. [formula]

Another experiment deals with T2, cathepsin L (Homo sapiens, UniProt P07711).
T2 construct: purchased Cosmo Bio
Nature of the experiment: Assay of Cathepsin L-Inhibitory Activity (Z-Phe-Arg-MCA). The following applies: Z-Phe-Arg-MCA 20 μM, pH 5.5, 20 min, 30° C. As for the experimental part: The activity of cathepsinL (Cosmo Bio), a cysteine protease, was assayed by the method described in the literature [Methods in Enzymology, 80, 535-561, 1981]. Thus, to a solution containing 85 mM acetate buffer (pH 5.5), 2 mM dithiothreitol, 1 mM EDTA, 2 μg cathepsin L, and a varying concentration of the test compound was added 20 μM carbobenzoxy-L-phenylalanyl-L-arginine-4-methyl-coumaryl-7-amide (Z-Phe-Arg-MCA) to initiate the reaction at the final liquid volume of 200 μl. After 20 minutes of reaction at 30° C., 20 μl of 1M Tris-HCl (pH 8.0) was added so as to stop the reaction. The amount of liberated 4-methyl-7-aminocoumarin was determined with a fluorospectrometer at an excitation wavelength of 360 nm and a fluorescent emission wavelength of 450 nm. Using the value found without addition of the test drug as control and the value found without addition of the enzyme as blank, IC50 was determined in the same manner as above. E64 was used as a reference drug.

Another experiment concerns the target T3, papain (Carica papaya, UniProt P00784).
T3 construct: purchased Sigma
T3 sequence (P00784 134-345): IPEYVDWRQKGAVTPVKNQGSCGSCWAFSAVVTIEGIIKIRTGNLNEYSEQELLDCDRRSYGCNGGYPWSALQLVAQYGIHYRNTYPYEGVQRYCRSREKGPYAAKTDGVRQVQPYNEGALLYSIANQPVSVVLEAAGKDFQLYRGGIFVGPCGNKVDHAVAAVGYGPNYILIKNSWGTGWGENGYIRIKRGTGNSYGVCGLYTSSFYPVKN
Nature of the experiment: Assay of Papain-Inhibitory Activity (casein degradation). The following applies: casein substrate, pH 8.0, 60 min, 30° C. As for the experimental part:
as §1

T2 sequence (P07711 114-333, species assumed): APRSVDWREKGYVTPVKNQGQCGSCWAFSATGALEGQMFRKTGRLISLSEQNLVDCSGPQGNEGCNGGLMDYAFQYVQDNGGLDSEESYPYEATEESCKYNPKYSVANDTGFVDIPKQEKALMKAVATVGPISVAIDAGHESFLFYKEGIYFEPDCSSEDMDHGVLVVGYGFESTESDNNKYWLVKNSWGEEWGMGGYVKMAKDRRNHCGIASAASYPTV

For the compound `O=C(O)[C@H]1O[C@@H]1C(=O)N[C@@H](Cc1ccccc1)C(=O)N1CCN(c2ccc(F)cc2)CC1` [Example 21, (2s,3s)-3-[[[[(1s)-1-[[4-(4-fluorophenyl)-1-piperazinyl]carbonyl]-2-phenyl]ethyl]amino]carbonyl]oxiranecarboxylic acid], in the experiment with trypsin, the IC50 is > 3000 µM. For `CC(C)C[C@H](NC(=O)[C@H]1O[C@@H]1C(=O)O)C(=O)N1CCN(c2ccc(F)cc2)CC1` [Example 23, (2s,3s)-3-[[[[(1s)-1-[[4-(4-fluorophenyl)-1-piperazinyl]carbonyl]-3-methyl]butyl]amino]carbonyl]oxiranecarboxylic acid], the IC50 in the experiment with trypsin is > 3000 µM. As for `Cc1ccc(S(=O)(=O)N2CCN(C(=O)[C@H](CC(C)C)NC(=O)[C@H]3O[C@@H]3C(=O)O)CC2)cc1` [Example 26, (2s,3s)-3-[[[[(1s)-1-[[4-(4-methylphenylsulfonyl)-1-piperazinyl]carbonyl]-3-methyl]butyl]amino]carbonyl]oxiranecarboxylic acid], the IC50 in the experiment on trypsin was > 3000 µM. Consider `CC(C)C[C@H](NC(=O)[C@H]1O[C@@H]1C(=O)O)C(=O)N1CCN(c2ccccc2Cl)CC1` [Example 27, (2s,3s)-3-[[[[(1s)-1-[[4-(2-chlorophenyl)-1-piperazinyl]carbonyl]3-methyl]butyl]amino]carbonyl]oxiranecarboxylic acid], for which, in the experiment on trypsin, the IC50 is > 3000 µM.

In the case of `O=C(O)[C@H]1O[C@@H]1C(=O)NCC(=O)N1CCN(c2ccccc2Cl)CC1` [Example 32, (2s,3s)-3-[[[[[4-(2-chlorophenyl)-1-piperazinyl]carbonyl]methyl]amino]carbonyl]oxiranecarboxylic acid], the IC50 against μ-calpain was 17.5 µM; on cathepsin L (read-out: Cathepsin L 50% Inhibitory concentration (IC50)), 37.6 µM; with trypsin, > 3000 µM.

Regarding `CC[C@H](C)[C@H](NC(=O)[C@H]1O[C@@H]1C(=O)O)C(=O)N1CCN(c2ccccc2Cl)CC1` [Example 34, (2s,3s)-3-[[[[(1s)-1-[[4-(2-chlorophenyl)-1-piperazinyl]carbonyl]-2-methyl]butyl]amino]carbonyl]oxiranecarboxylic acid], the IC50 is 0.009 µM on cathepsin L and > 3000 µM in the experiment with trypsin.

Compound `CC(=O)NCSC[C@H](NC(=O)[C@H]1O[C@@H]1C(=O)O)C(=O)N1CCN(c2ccccc2Cl)CC1` [Example 38, (2s,3s)-3-[[[[(1s)-1-[[4-(2-chlorophenyl)-1-piperazinyl]carbonyl]-2-acetylaminomethylthio]ethyl]amino]carbonyl]oxiranecarboxylic acid] registered an IC50 against μ-calpain of 3.9 µM. Still for that read-out and setting: as for `O=C(O)[C@H]1O[C@@H]1C(=O)NC1(C(=O)N2CCN(c3ccc(F)cc3)CC2)CCCC1` [Example 41, (2s,3s)-3-[[[(1s)-1-[[4-(4-fluorophenyl)-1-piperazinyl]carbonyl]-1-cyclopentyl]amino]carbonyl]oxiranecarboxylic acid], the figure is 145 µM.

For the compound `CC(C)C[C@H](NC(=O)[C@H]1O[C@@H]1C(=O)O)C(=O)NCCCCNC(=N)N` [Example E-64, reference compound], the IC50 against μ-calpain is 0.66 µM; against cathepsin L, 0.015 µM; at papain it was 0.032 µM; with trypsin it was > 300 µM.

In the case of `CC(=O)N[C@@H](CC(C)C)C(=O)N[C@@H](CC(C)C)C(=O)N[C@H](C=O)CCCNC(=N)N` [Leupeptin, reference compound], the IC50 in the experiment with trypsin was 7.4 µM.
